For experiment [1], the system named is influenza A/Aichi/2/69 (H3N2) virus. Kind of experiment: Murine influenza pneumonia model. It counts as in vivo, mice. Particulars: for Mean Life Span / Mortality / Survival rate: mice infected with 10 LD50; for Mortality reduction: versus virus control. The protocol: Determination of the efficacy of the compounds in the murine influenza pneumonia model.
The experiments were carried out on 60 white mice weighing 12-15 g. The animals were infected intranasally under light ether anesthesia with the influenza A/Aichi/2/69 (H3N2) virus (10 LD50). The compounds to be tested were administered per os in a dose of 60 or 15 mg/kg/day. The treatment was carried out according to the following scheme: 24 hours and 1 hour before infection, and then 2 times a day (at 8 o'clock in the morning and 8 o'clock in the evening) for 5 days. The chemotherapeutic activity of Arbidol and compound A in the murine influenza pneumonia model was assessed according to two criteria: the index of protection against fatal viral infection and the increase in mean life span of the treated animals as compared with the control group. The mean life span of the mice was calculated according to the following formula: Σf(d−1)/n, where f is the number of mice dying on day d (the surviving mice were also included in f; d in this case=16); n is the number of mice in the group.

Experiment [2] concerns Influenza A/New Caledonia/20/99 (H1N1) Virus. As to the kind of experiment: microbe, parasite or virus in culture. It is filed as cell-based. Particulars: for MIC50: Influenza A virus, H1N1, MDCK cells, concentration decreasing OD by 50%, solvent alcohol.

Converted amounts (≈) assume the structure as drawn.

On to `CCOC(=O)c1c(C)n(C2CCCCC2)c2ccc(O)c(CN(C)C)c12` [Compound A, 5-hydroxy-4-dimethylaminomethyl-2-methyl-1-cyclohexyl-3-ethoxycarbonyl indole], for which the “Efficacy in animal experiments” value in experiment [1] (15 mg/kg/day) is on record as “equal to the efficacy of Arbidol at a dose 4 times higher”. In experiment [1] (15 mg/kg/day per os), the “Mean Life Span” value came to 11.5 days, the Mortality was found to be 40%, the Survival rate is reported as 5/8 and the Mortality reduction is 50%. Also, the “Activity in animal experiments compared with Arbidol” value in experiment [1] (summary of Table 2) is “significantly more active than Arbidol”. Moreover, in experiment [2], the “Activity at 10 μg/mL” value came to 96.5% and the MIC50 is 5.4 µg/mL (≈ 15.1 µM). Moreover, the “Activity in in vitro experiments compared with Arbidol” value in experiment [2] (summary of Table 1) was “somewhat more active than Arbidol”.

On to `CCOC(=O)c1c(CSc2ccccc2)n(C)c2cc(Br)c(O)c(CN(C)C)c12` [Arbidol, 1-methyl-2-phenylthiomethyl-3-carbethoxy-4-dimethylaminomethyl-5-oxy-6-bromindol], for which, in experiment [1] (15 mg/kg/day per os), the “Mean Life Span” value turned out to be 7.3 days, the Mortality is given as 70%, the Survival rate was 3/10 and the Mortality reduction is 20%. In experiment [1] (60 mg/kg/day per os), the “Mean Life Span” value worked out at 10.8 days, the Mortality is on record as 40%, the Survival rate is given as 6/10 and the Mortality reduction is listed as 50%. Further, in experiment [2], the “Activity at 10 μg/mL” value stood at 89.5% and the MIC50 turned out to be 6 µg/mL (≈ 12.6 µM).
